This passage reports IC50 results from the Kinase Knowledgebase extract (Sharma et al. 2016).

Assay [1] has as its target MAPK14 (UniProt Q16539).
The target of assay [2] is MAPK14 (UniProt Q16539). This is another data set of the same source.
The target of assay [3] is MAPK14 (UniProt Q16539). The source holds these as a separate data set.

pIC50: −log10 of the molar value.

MAPK14, sequence (Q16539 whole entry, looked up): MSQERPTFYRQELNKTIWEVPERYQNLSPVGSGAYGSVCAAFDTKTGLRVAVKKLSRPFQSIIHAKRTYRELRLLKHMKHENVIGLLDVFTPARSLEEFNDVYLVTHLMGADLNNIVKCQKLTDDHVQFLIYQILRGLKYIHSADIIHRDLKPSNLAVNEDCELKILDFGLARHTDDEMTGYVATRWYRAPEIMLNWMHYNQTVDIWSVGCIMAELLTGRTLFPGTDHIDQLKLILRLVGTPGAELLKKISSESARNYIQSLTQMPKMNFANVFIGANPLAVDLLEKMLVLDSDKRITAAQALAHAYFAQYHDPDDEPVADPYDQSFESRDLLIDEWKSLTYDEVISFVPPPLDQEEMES

The pIC50 is the IC50 on a negative log10 scale, so that one unit is a factor of ten. A higher pIC50 goes with a small IC50. `Cc1ccc(Oc2cc(-c3c(-c4ccc(F)cc4)ncn3C3CCNCC3)ccn2)cc1` gave a pIC50 in assay [1] greater than 4.30.

Turning to `Fc1ccc(Oc2nccc(-c3c(-c4ccc(F)cc4)ncn3CCCN3CCOCC3)n2)cc1`, the pIC50 in assay [2] and in assay [3] was greater than 4.30 in each case.

On to `Cn1nnnc1Sc1cc(-c2c(-c3ccc(F)cc3)ncn2C2CCNCC2)ccn1`, for which the pIC50 in assay [2], in assay [3] and in assay [1] was greater than 4.30 throughout.

`Fc1ccc(-c2ncn(C3CCNCC3)c2-c2ccnc(Oc3ccccc3)c2)cc1`: the pIC50 in assay [2], in assay [3] and in assay [1] was greater than 4.30 in each case.

Take `Fc1ccc(-c2ncn(C3CCNCC3)c2-c2ccnc(Oc3ccc(Cl)cc3)c2)cc1`: the negative logarithm of the IC50 (pIC50) in assay [1] is greater than 4.30.

In the case of `Fc1ccc(-c2ncn(C3CCNCC3)c2-c2ccnc(Sc3ccccc3)c2)cc1`, the negative-log IC50 (pIC50) in assay [2] and in assay [1] was greater than 4.30 each time.

For `COc1ccc(Oc2cc(-c3c(-c4ccc(F)cc4)ncn3C3CCNCC3)ccn2)cc1`, the pIC50 in assay [2], in assay [3] and in assay [1] was greater than 4.30 in each case.

In the case of `Fc1ccc(Oc2cc(-c3c(-c4ccc(F)cc4)ncn3C3CCNCC3)ccn2)cc1`, the pIC50 in assay [2], in assay [3] and in assay [1] was greater than 4.30 in each case.

`Fc1ccc(-c2ncn(C3CCNCC3)c2-c2ccnc(Oc3ccc(OCc4ccccc4)cc3)c2)cc1` had a pIC50 in assay [1] greater than 4.30.

For `Fc1ccc(-c2ncn(CCCN3CCOCC3)c2-c2ccnc(Oc3ccccc3)n2)cc1`, the pIC50 in assay [3] and in assay [1] was greater than 4.30 throughout.
